Experimental data: patent US10604480B2, “(Thio, oxo, and seleno) semicarbazone derivatives and their use for treating cancer” (RUTGERS, THE STATE UNIVERSITY OF NEW JERSEY, priority 2015, dated 2020)

What was measured:
HEK293 cells = assay: Intracellular [Zn2+]free imaging with FluoZin-3-AM, HEK293 cells; assay type: cell-based; conditions: for increase of intracellular [Zn2+]free (FZ3-AM fluorescence): HEK293 (non-cancer, p53-WT), complete media, confocal microscopy
Procedure: (§1) To minimize the potential for Zn^2+ contamination and contributions from poorly defined elements in complete media (e.g. FBS), cells were treated and imaged in Ca^2+ and Mg^2+-free Earle's Balanced Salt Solution supplemented with 10 mM HEPES pH 7.4 (EBSS/H (−)Ca/Mg). Excess ZnCl2 with the Zn^2+ ionophore pyrithione (PYR) was used as a positive control. Excess membrane-permeable Zn^2+ chelator N,N,N′,N′-tetrakis(2-pyridylmethyl)ethane-1,2-diamine (TPEN) was used as a negative control.
To normalize for differential dye loading, cells were then sequentially treated with excess PYR/ZnCl2, imaged, treated with TPEN, and imaged again. PYR/ZnCl2 and TPEN served to saturate and apoize the intracellular FZ3, respectively.
TOV112D or HEK293 cells (40,000 cells/well) were plated on either 8-well BD Falcon chambered culture slides (Corning Life Sciences) or 8-chambered #1.5 Nunc Lab-Tek II chambered coverglasses (Thermo Scientific) treated with poly-L-lysine. After 48 h, cells were washed 2×5 m in serum-free media and incubated with 1 μM FZ3-AM for 40 m at 37° C. Cells were then washed 2×5 m in either EBSS/H (−)Ca/Mg or phenol-red free DMEM+10% FBS containing the indicated treatments for 20 m before imaging. For nuclear colocalization, 1 μg/mL Hoechst 33342 was also included. Cells were imaged using a Zeiss LSM50 META NLO confocal microscope equipped with 37° C. environmental control chamber. FZ3 and Hoechst 33342 were excited at 488 nm (argon laser) and 790 nm (Chameleon Ti:sapphire laser), respectively. To determine the kinetics of fluorescence change, each background-subtracted image in the time-lapse series was integrated in ImageJ and normalized to the integrated fluorescence of the first frame after treatment. For quantification of intracellular [Zn^2+]free, each cell was analyzed in the treated, 50 μM PYR/ZnCl2 (1:1), and 100 μM TPEN images by taking the mean fluorescence of an ROI inside the cell subtracted by an ROI immediately outside the cell measured in ImageJ. The [Zn^2+]free for each cell was then calculated by Eqn 2:
[formula] […] To minimize the effects of outliers the lowest and highest 5% of cells in each series were rejected, and the remaining values averaged to give the value from that experiment. The number of cells analyzed in each trial ranged from 54-163. For nuclear colocalization, treated, PYR/ZnCl2, and TPEN treated images costained with Hoechst 33342 were aligned and each pixel subjected to Eqn. 2 in MATLAB (MathWorks).

[1] = Liposome import assay (RZ-3 fluorescence); conditions: for Zn2+ shuttling into liposomes: external [Zn2+]free 10 μM
Procedure: However, in complete media containing 10% fetal bovine serum (FBS), Zn^2+-binding proteins from the serum (e.g. albumin) necessarily compete for Zn^2+ with any putative MC, making the effective [Zn^2+]free much lower than [Zn^2+]total.
(§2) DOPC-liposomes were prepared by film rehydration and extrusion followed by gel filtration and diluted to an OD600=0.06 in buffer. The size distribution of the liposomes was determined by dynamic light scattering (DLS) using a Malvern Zetasizer Nano ZS. Fluorescence measurements were taken on a Horiba Fluoromax-4 spectrofluorimeter in a 5×5 mm quartz cuvette with λex/λem=550/572 nm for RZ-3 and 490/515 nm for calcein. Initial Zn^2+ import/export was quantified by fitting the first 10-30 s of data after each treatment to a line and converted to units of flux using the following Eqn 1:
[formula] where Ji is the initial flux, ΔF/Δt is the slope of the fit line, Fmax is RZ-3 fluorescence in the presence of saturating Zn^2+ and 1% TritonX-100, Fmin is RZ-3 fluorescence in the presence of excess EDTA and 1% TritonX-100, [RZ3] is the concentration of encapsulated RZ-3, and SA/Vol is the surface area to volume ratio calculated assuming hollow spheres of the mean diameter determined by DLS. Intracellular [Zn^2+]free Imaging

TOV112D cells = assay: Intracellular [Zn2+]free imaging with FluoZin-3-AM, TOV112D cells; assay type: cell-based; conditions: ZMC1 alone without ZnCl2, EBSS/H (−)Ca/Mg
Procedure: as §1
To normalize for differential dye loading, cells were then sequentially treated with excess PYR/ZnCl2, imaged, treated with TPEN, and imaged again. […]
TOV112D or HEK293 cells (40,000 cells/well) were plated on either 8-well BD Falcon chambered culture slides (Corning Life Sciences) or 8-chambered #1.5 Nunc Lab-Tek II chambered coverglasses (Thermo Scientific) treated with poly-L-lysine. […] To determine the kinetics of fluorescence change, each background-subtracted image in the time-lapse series was integrated in ImageJ and normalized to the integrated fluorescence of the first frame after treatment. For quantification of intracellular [Zn^2+]free, each cell was analyzed in the treated, 50 μM PYR/ZnCl2 (1:1), and 100 μM TPEN images by taking the mean fluorescence of an ROI inside the cell subtracted by an ROI immediately outside the cell measured in ImageJ. […]

[2] = Liposomal leakage assay (calcein) and liposome size distribution
Procedure: To ensure that the fluorescence results were due to Zn^2+ transport and not to non-specific disruption of liposomal membranes, a liposomal leakage assay was performed using the self-quenching fluorophore calcein. When calcein is encapsulated at concentrations above 4 mM its fluorescence is decreased via self-quenching. Leakage is detected by a fluorescence increase as the dye dilutes and its fluorescence dequenches. […] Disruption of liposomes can also be detected by alteration of their size distribution.
as §2, with “1: […]” for “1:”

Structure (SMILES) | increase of intracellular [Zn2+]free (FZ3-AM fluorescence) (HEK293 cells) | Zn2+ shuttling into liposomes [1] | ability to cross liposomal or cellular membranes [1] | increase in intracellular [Zn2+]free, ZMC1 alone (HEK293 cells; HEK293, ZMC1 alone without ZnCl2, EBSS/H (−)Ca/Mg) | increase in intracellular [Zn2+]free, ZMC1 alone (TOV112D cells) | RZ-3 fluorescence after reversing [Zn2+]free gradient with excess external EDTA ([1]; ZMC1 added after EDTA, export of Zn2+ from liposomes) | calcein fluorescence increase (liposome leakage) ([2]; highest concentrations of ZMC1 and ZnCl2) | size distribution of liposomes ([2]; highest concentrations of ZnCl2 and ZMC1)
C/C(=N\NC(=O)N1CCC1)c1ccccn1 [Example A6] | did not | shuttled Zn^2+ into the liposomes |  |  |  |  |  | 
O=C(O)CN(CC(=O)O)CC(=O)O [NTA] | did not | did not | cannot cross either liposomal or cellular membranes |  |  |  |  | 
C/C(=N\NC(=S)N1CCC1)c1ccccn1 [ZMC1] | increased |  | can cross biological membranes both as free drug and drug-Zn^2+ complex | neither cell type showed an increase | neither cell type showed an increase | time dependent decrease | a significant fluorescence increase was not detected | identical to that of untreated liposomes
